target: T1, ferroportin (Fpn) (Mus musculus, UniProt Q9JHI9); test: Hepcidin Internalization Assay (J774); assay type: cell-based; details: Average (AVE) IC50 of multiple measurements; inhibition of TMR-hepcidin (25 nM) internalization into J774 cells
T1 construct: endogenous in cells; host or cells: J774 mouse macrophage cell line, induced with Fe(III)NTA
T1 sequence (Q9JHI9 1-570): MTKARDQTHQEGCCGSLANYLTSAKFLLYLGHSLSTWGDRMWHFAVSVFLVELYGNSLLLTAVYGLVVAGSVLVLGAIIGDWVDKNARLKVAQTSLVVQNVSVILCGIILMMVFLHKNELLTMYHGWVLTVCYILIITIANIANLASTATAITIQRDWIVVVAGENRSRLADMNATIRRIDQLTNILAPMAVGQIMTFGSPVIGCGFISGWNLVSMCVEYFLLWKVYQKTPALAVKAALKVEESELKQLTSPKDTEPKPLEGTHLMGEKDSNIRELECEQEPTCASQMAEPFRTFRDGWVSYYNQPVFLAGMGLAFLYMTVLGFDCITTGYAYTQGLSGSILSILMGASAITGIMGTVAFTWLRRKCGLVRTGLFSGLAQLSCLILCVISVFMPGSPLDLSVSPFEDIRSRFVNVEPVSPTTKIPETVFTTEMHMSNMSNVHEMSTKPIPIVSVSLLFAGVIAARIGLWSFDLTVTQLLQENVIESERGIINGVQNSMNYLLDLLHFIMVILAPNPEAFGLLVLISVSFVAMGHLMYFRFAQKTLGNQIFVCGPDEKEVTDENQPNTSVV
Description: This cellular assay allows quantification of the binding of hepcidin to ferroportin (Fpn) through microscopic detection of internalization of a fluorescently labeled hepcidin into J774 cells. […] Binding of hepcidin to Fpn triggers internalization and degradation of both hepcidin and Fpn. […] Therefore, microscopic detection of cell-associated TMR fluorescence is a measure of hepcidin binding to Fpn and internalization of hepcidin and Fpn. If TMR-hepcidin is prevented from binding to Fpn, cellular TMR fluorescence remains low (Durrenberger et al, 2013). The effect of small molecular weight Fpn inhibitor compounds in this assay was evaluated in vitro as described below. […] After removal of the paraformaldehyde solution, cells were washed 3 times with PBS leaving 100 μl per well and the plates were sealed with foil plate seal. TMR (530-550 nm excitation/575-625 nm emission/400 ms exposure time) and Hoechst 33342 (360-370 nm excitation/420-460 nm emission /10 ms exposure time) fluorescence images were acquired using a […] imager (Olympus) with a 20× high NA objective. […] The acquired image data was analysed with the […] analysis software. […] IC50 values were calculated with the Sum(Mean) raw data using “log(inhibitor) vs. response” curve fitting of Prism 5 software (GraphPad Software Inc., version 5.02). For each data set the fit of the “log(inhibitor) vs. response (three parameters)” model was compared to the fit of the “log(inhibitor) vs. response - Variable slope (four parameters)” model and the IC50 data of the preferred model was used.

IC50 [nM]	SMILES
4	COCCn1c(CCNCCc2nc(C(=O)NCc3ncccc3F)co2)nc2ccccc21 [Example 1, N-((3-fluoropyridin-2-yl)methyl)-2-(2-((2-(1-(2-methoxyethyl)-1 H-benzo[d]imidazol-2-yl)ethyl)amino)ethyl)oxazole-4-carboxamide]
1	CCCCn1c(CCNCCc2nc(C(=O)NCc3ncccc3F)co2)nc2ccccc21 [Example 2, 2-(2-((2-(1-butyl-1 H-benzo[d]imidazol-2-yl)ethyl)amino)ethyl)-N-((3-fluoropyridin-2-yl)methyl)oxazole-4-carboxamide]
2	O=C(NCc1ncccc1F)c1coc(CCNCCc2nc3ccccc3n2Cc2ccccn2)n1 [Example 3, N-((3-fluoropyridin-2-yl)methyl)-2-(2-((2-(1-(pyridin-2-ylmethyl)-1H-benzo[d]imidazol-2-yl)ethyl)amino)ethyl)oxazole-4-carboxamide]
7	Cn1c(CCNCCc2nc(C(=O)NCc3ncccc3F)co2)nc2ccccc21 [Example 5, N-((3-fluoropyridin-2-yl)methyl)-2-(2-((2-(1-methyl-1 H-benzo[d]imidazol-2-yl)ethyl)amino)ethyl)oxazole-4-carboxamide]
3.6	CCn1c(CCNCCc2nc(C(=O)NCc3ncccc3F)co2)nc2ccccc21 [Example 6, 2-(2-((2-(1-ethyl-1 H-benzo[d]imidazol-2-yl)ethyl)amino)ethyl)-N-((3-fluoropyridin-2-yl)methyl)oxazole-4-carboxamide]
1.2	CC(C)Cn1c(CCNCCc2nc(C(=O)NCc3ncccc3F)co2)nc2ccccc21 [Example 8, N-((3-fluoropyridin-2-yl)methyl)-2-(2-((2-(1-isobutyl-1 H-benzo[d]imidazol-2-yl)ethyl)amino)ethyl)oxazole-4-carboxamide]
1	CCCCn1c(CCNCCc2nc(C(=O)NCc3ncccc3Cl)co2)nc2ccccc21 [Example 9, 2-(2-((2-(1-butyl-1 H-benzo[d]imidazol-2-yl)ethyl)amino)ethyl)-N-((3-chloropyridin-2-yl)methyl)oxazole-4-carboxamide]
2	CCCCn1c(CCNCCc2nc(C(=O)NCc3ccccn3)co2)nc2ccccc21 [Example 11, 2-(2-((2-(1-butyl-1 H-benzo[d]imidazol-2-yl)ethyl)amino)ethyl)-N-(pyridin-2-ylmethyl)oxazole-4-carboxamide]
126	O=C(O)Cn1c(CCNCCc2nc(C(=O)NCc3ncccc3F)co2)nc2ccccc21 [Example 14, 2-(2-(2-((2-(4-(((3-fluoropyridin-2-yl)methyl)carbamoyl)oxazol-2-yl)ethyl)amino)ethyl)-1H-benzo[d]imidazol-1-yl)acetic acid]
32	CNC(=O)Cn1c(CCNCCc2nc(C(=O)NCc3ncccc3F)co2)nc2ccccc21 [Example 15, N-((3-fluoropyridin-2-yl)methyl)-2-(2-((2-(1-(2-(methylamino)-2-oxoethyl)-1 H-benzo[d]imidazol-2-yl)ethyl)amino)ethyl)oxazole-4-carboxamide]
181	NC(=O)Cn1c(CCNCCc2nc(C(=O)NCc3ncccc3F)co2)nc2ccccc21 [Example 16, 2-(2-((2-(1-(2-amino-2-oxoethyl)-1H-benzo[d]imidazol-2-yl)ethyl)amino)ethyl)-N-((3-fluoropyridin-2-yl)methyl)oxazole-4-carboxamide]
0.8	O=C(NCc1ncccc1F)c1coc(CCNCCc2nc3ccccc3n2Cc2ccccc2)n1 [Example 17, 2-(2-((2-(1-benzyl-1 H-benzo[d]imidazol-2-yl)ethyl)amino)ethyl)-N-((3-fluoropyridin-2-yl)methyl)oxazole-4-carboxamide]
1	O=C(NCc1ncccc1F)c1coc(CCNCCc2nc3ccccc3n2CCC2CC2)n1 [Example 21, 2-(2-((2-(1-(2-cyclopropylethyl)-1 H-benzo[d]imidazol-2-yl)ethyl)amino)ethyl)-N-((3-fluoropyridin-2-yl)methyl)oxazole-4-carboxamide]
1.9	O=C(NCc1ncccc1F)c1coc(CCNCCc2nc3ccccc3n2CCc2ccccc2)n1 [Example 23, N-((3-fluoropyridin-2-yl)methyl)-2-(2-((2-(1-phenethyl-1 H-benzo[d]imidazol-2-yl)ethyl)amino)ethyl)oxazole-4-carboxamide]
7	CNC(=O)CCn1c(CCNCCc2nc(C(=O)NCc3ncccc3F)co2)nc2ccccc21 [Example 25, N-((3-fluoropyridin-2-yl)methyl)-2-(2-((2-(1-(3-(methylamino)-3-oxopropyl)-1 H-benzo[d]imidazol-2-yl)ethyl)amino)ethyl)oxazole-4-carboxamide]
1.3	Cc1noc(C)c1CCn1c(CCNCCc2nc(C(=O)NCc3ncccc3F)co2)nc2ccccc21 [Example 30, 2-(2-((2-(1-(2-(3,5-dimethylisoxazol-4-yl)ethyl)-1 H-benzo[d]imidazol-2-yl)ethyl)amino)ethyl)-N-((3-fluoropyridin-2-yl)methyl)oxazole-4-carboxamide]
2.8	O=C(NCc1ncccc1F)c1coc(CCNCCc2nc3ccccc3n2CCc2ncco2)n1 [Example 31, N-((3-fluoropyridin-2-yl)methyl)-2-(2-((2-(1-(2-(oxazol-2-yl)ethyl)-1 H-benzo[d]imidazol-2-yl)ethyl)amino)ethyl)oxazole-4-carboxamide]
7.4	Cn1ccnc1CCn1c(CCNCCc2nc(C(=O)NCc3ncccc3F)co2)nc2ccccc21 [Example 34, N-((3-fluoropyridin-2-yl)methyl)-2-(2-((2-(1-(2-(1-methyl-1 H-imidazol-2-yl)ethyl)-1 H-benzo[d]imidazol-2-yl)ethyl)amino)ethyl)oxazole-4-carboxamide]
2	O=C(NCc1ncccc1F)c1coc(CCNCCc2nc3ccccc3n2CCc2ccccn2)n1 [Example 35, N-((3-fluoropyridin-2-yl)methyl)-2-(2-((2-(1-(2-(pyridin-2-yl)ethyl)-1H-benzo[d]imidazol-2-yl)ethyl)amino)ethyl)oxazole-4-carboxamide]
0.9	CCCCn1c(CCNCCc2nc(C(=O)NCc3ncccc3F)co2)nc2cc3c(cc21)OCCO3 [Example 37, 2-(2-((2-(1-butyl-6,7-dihydro-1H-[1,4]dioxino[2′,3′:4,5]benzo[1,2-d]imidazol-2-yl)ethyl)amino)ethyl)-N-((3-fluoropyridin-2-yl)methyl)oxazole-4-carboxamide]
1.7	CCCCn1c(CCNCCc2nc(C(=O)NCc3ncccc3F)co2)nc2cc(-c3ccccc3OC)ccc21 [Example 39, 2-(2-((2-(1-butyl-5-(2-methoxyphenyl)-1 H-benzo[d]imidazol-2-yl)ethyl)amino)ethyl)-N-((3-fluoropyridin-2-yl)methyl)oxazole-4-carboxamide]
1.8	CCCCn1c(CCNCCc2nc(C(=O)NCc3ncccc3F)co2)nc2ccc(-c3ccccc3OC)cc21 [Example 40, 2-(2-((2-(1-butyl-6-(2-methoxyphenyl)-1 H-benzo[d]imidazol-2-yl)ethyl)amino)ethyl)-N-((3-fluoropyridin-2-yl)methyl)oxazole-4-carboxamide]
4	CCCCn1c(CCNCCc2nc(C(=O)NCc3ncccc3F)co2)nc2ccc(-c3ccccc3)cc21 [Example 41, 2-(2-((2-(1-butyl-6-phenyl-1 H-benzo[d]imidazol-2-yl)ethyl)amino)ethyl)-N-((3-fluoropyridin-2-yl)methyl)oxazole-4-carboxamide]
2.4	CCCCn1c(CCNCCc2nc(C(=O)NCc3ncccc3F)co2)nc2cc(-c3ccccc3)ccc21 [Example 42, 2-(2-((2-(1-butyl-5-phenyl-1 H-benzo[d]imidazol-2-yl)ethyl)amino)ethyl)-N-((3-fluoropyridin-2-yl)methyl)oxazole-4-carboxamide]
1	O=C(NCc1ncccc1F)c1coc(CCNCCc2nc3ccccc3n2CCc2nc3ccccc3[nH]2)n1 [Example 44, 2-(2-((2-(1-(2-(1H-benzo[d]imidazol-2-yl)ethyl)-1 H-benzo[d]imidazol-2-yl)ethyl)amino)ethyl)-N-((3-fluoropyridin-2-yl)methyl)oxazole-4-carboxamide]
